“Also recorded” adds a separate entry of the source. Like-named read-outs stand apart in the source and are kept apart here. Where a SMILES comes first, the peptide text is derived from it. Where no end group is shown, it is not given here. [ ]: non-standard residue; d: D form.
Experiments:
[1] = molecular target: PSD-95 PDZ domain 2 (UniProt P78352); assay: competitive ELISA on coated PSD95PDZ2, competitor biotinylated NA-1
[2] = molecular target: T1, PSD95PDZ2 (Homo sapiens, UniProt P78352); assay: direct ELISA; biotinylated peptide (Bio-D-NA1)
Target sequence in this assay (P78352 160-246): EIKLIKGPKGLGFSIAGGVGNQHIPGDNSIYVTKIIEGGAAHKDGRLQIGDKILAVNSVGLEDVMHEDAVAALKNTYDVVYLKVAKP

[3] = molecular target: PSD-95 PDZ domain 2 (UniProt P78352); assay: competitive ELISA on coated PSD95PDZ2
[4] = test system: plasmin; assay: digested with plasmin
[5] = rat, in vivo, sc, 25 mg/kg
Method: (§1) Rats were anaesthetized in the supine position (Isoflurane 1.5--%) and allowed to breath spontaneously in 0.5 L/min 02. The left femoral artery was cannulated for blood sampling.
(§2) Test agents were prepared at the stablish concentration in a total volume of vehicle. Pulmonary instillation was performed by intubation with a 14G catheter connected to a 1 cc syringe and the test agent will be delivered through the catheter. Subcutaneous (SQ or SC) injection was injected into the area of the left flank, no more than 2 ml of total volume per site.
(§3) Each dose was evaluated in 3 rats for each administration strategy. […] For the first experiment, evaluating two different administration routes (SQ and PI), blood samples were collected at 8 different timepoints: Pre and at 7 additional times (1, 2.5, 5, 10, 15, 30, 60 min) post dose (250 ul/sample).
(§4) HPLC quantification: Plasma was separated from blood and stored at −−−80° C. until used. […] Standard curves for HPLC were generated from plasma samples spiked with known quantities of test agent.

[6] = test system: histamine release; details: rat, in vivo, iv, 7.6 mg/kg
Method: (§5) Histamine levels were quantified by using commercially available histamine ELISA assay kit (Histamine ELISA-H1531-K01, Eagle Bioscience). The plates were coated with the plasma samples (50 ul/well) incubated for 60 minutes at room temperature on an orbital shaker with medium frequency. Then 100 ul of enzyme conjugate was added to the wells and incubated for 20 minutes at room temperature. […] The reaction was stopped with 100 ul H2SO4. Absorbance was determined on an ELISA plate reader at 450 nm.
(§6) Blood samples were taken at pre-injection and at 0, 1, 2.5, 5, 10, 15, 30- and 60-minutes post dose and used for histamine levels quantification using commercially available kit.

[7] = molecular target: tPA (Homo sapiens, UniProt P00750)
tPA, sequence (P00750 36-562): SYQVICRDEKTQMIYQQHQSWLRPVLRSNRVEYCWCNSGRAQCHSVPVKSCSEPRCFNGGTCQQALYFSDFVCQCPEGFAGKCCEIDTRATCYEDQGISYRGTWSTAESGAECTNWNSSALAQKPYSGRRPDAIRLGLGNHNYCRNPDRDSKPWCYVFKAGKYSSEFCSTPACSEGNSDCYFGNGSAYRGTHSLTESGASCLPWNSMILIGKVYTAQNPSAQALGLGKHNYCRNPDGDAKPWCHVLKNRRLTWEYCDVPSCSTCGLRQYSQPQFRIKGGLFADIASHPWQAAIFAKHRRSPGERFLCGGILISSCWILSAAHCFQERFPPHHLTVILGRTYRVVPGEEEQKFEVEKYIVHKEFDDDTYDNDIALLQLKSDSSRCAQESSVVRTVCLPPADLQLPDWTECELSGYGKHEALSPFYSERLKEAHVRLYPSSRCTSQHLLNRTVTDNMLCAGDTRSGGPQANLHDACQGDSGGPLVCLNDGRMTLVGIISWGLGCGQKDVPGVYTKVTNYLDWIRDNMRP

[8] = molecular target: T1, PSD95PDZ2; assay: Competitive ELISA with biotinylated-NA-1; details: for IC50's relative to each other: FIG. 11, within the margin of error
Target sequence in this assay (P78352 160-246 limits assumed): as the sequence (P78352 160-246) above

[9] = MTD studies and renal toxicity in rats (creatinine, BUN)
[10] = Plasma concentrations 15 minutes post subcutaneous dose (animals of the 3PVO model); format: in vivo, rat
Method: Unlike transient models of stroke in rats where much lower doses are required for neuroprotection, neuroprotection in 3 pial vessel occlusion models of stroke seems to require plasma concentrations of nerinetide at or above 2 ug/mL (or molar equivalent). […] Although the plasma levels continue to increase through about 3 hours then decrease, it is important to achieve rapid accumulation in the blood and brain for emergency indications like stroke. […] For pharmacokinetic sample analysis, calibration standard samples at concentrations of 0, 2.5, 5, 10, 15, 20 and 40 ug/mL of nerinetide were prepared by spiking 1 μL of the appropriate stock to 100 μL of plasma. […] Data is presented as mean±SD.

[11] = NA-3 pharmacokinetics after subcutaneous injection in non-human primates; format: in vivo, cynomolgus macaques; details: for plasma concentrations achieved: cynomolgus macaques
Text: All values are presented as mean±SD; Statistical significance when compared to nerinetide alone is indicated as * (one-way ANOVA with post-hoc turkey's correction, *P<0.01). (Cmax: maximum plasma concentrations based on the extrapolated time-zero value; t1/2: half-life at terminal phase; tmax: time to reach Cmax; AUC0-t: area under the concentration-time curve from 0 to the last measured value; AUC0-inf: extrapolated area under the concentration-time curve from 0 to infinity; Cl: total clearance). Data is presented as mean±SD of three-four animals per group. The (-) represent data not reported due to an extrapolation of the AUC0-inf greater than 20% and R^2 lower than 0.9.

[12] = Physiologic parameters of NHP animals post NA-3 subcutaneous dose; format: in vivo, cynomolgus macaques
[13] = test system: histamine release; assay: Histamine release in rats, plasma histamine ELISA; details: rats
Method: as §5, §6

[14] = Pharmacokinetic analysis in rats (subcutaneous, pulmonary instillation, intravenous, intramuscular), HPLC
Method: as §1, §2, §3, §4

[15] = molecular target: T1, PSD95PDZ2; assay: direct ELISA; biotinylated peptide (Bio-D-Tat-L-NA1); unit printed "um"
Target sequence in this assay (P78352 160-246): as above

[16] = rat plasma in vitro with tPA administered simultaneously

PSD-95 PDZ domain 2, sequence (P78352 160-246 limits assumed): as the sequence (P78352 160-246) above

D-TAT-L-2B9c (peptide)
ratio of IC50 against D-Tat-L-IESDV [1]: < 2 fold

D-NA-1 NA1
EC50 [2]: 1380 nM

D-NA-1 (peptide)
fold change of EC50 against NA-1 and D-Tat-L-2B9C [3]: 10 fold

YGRKKRRQRRRKLSSIESDV
fragment found [4]: RRQRRRKLSSIESDV; also recorded: RQRRRKLSSIESDV; also recorded: QRRRKLSSIESDV; also recorded: RRKLSSIESDV; also recorded: RKLSSIESDV; also recorded: KLSSIESDV; also recorded: LSSIESDV

CC[C@H](C)[C@H](NC(=O)[C@H](CO)NC(=O)[C@H](CO)NC(=O)[C@H](CC(C)C)NC(=O)[C@H](CCCCN)NC(=O)[C@@H](CCCNC(=N)N)NC(=O)[C@@H](CCCNC(=N)N)NC(=O)[C@@H](CCCNC(=N)N)NC(=O)[C@@H](CCC(N)=O)NC(=O)[C@@H](CCCNC(=N)N)NC(=O)[C@@H](CCCNC(=N)N)NC(=O)[C@@H](CCCCN)NC(=O)[C@@H](CCCCN)NC(=O)[C@@H](CCCNC(=N)N)NC(=O)CNC(=O)[C@H](N)Cc1ccc(O)cc1)C(=O)N[C@@H](CCC(=O)O)C(=O)N[C@@H](CO)C(=O)N[C@@H](CC(=O)O)C(=O)N[C@H](C(=O)O)C(C)C [D-Tat-L-2B9C] (HELM PEPTIDE1{[dY].G.[dR].[dK].[dK].[dR].[dR].[dQ].[dR].[dR].[dR].K.L.S.S.I.E.S.D.V}$$$$V2.0; N-terminus and C-terminus assumed)
AUC compared with subcutaneous NA-1 [5]: increased Cmax and AUC relative to subcutaneous NA-1 but not to the same extent
Cmax compared with subcutaneous NA-1 [5]: increased Cmax and AUC relative to subcutaneous NA-1 but not to the same extent
histamine release [6]: did result in significant histamine release
degradation, control treatment with tPA [7]: no degradation
IC50 [8]: < 5000 nM
IC50's relative to each other [8]: within a factor of two of each other
EC50 (compared between peptides) ([8]; PSD-95 domain 2, FIG. 12): about the same within experimental error
creatinine versus the same dose level of NA-3 ([9]; rats, subcutaneous 25 mg/kg): Much less creatinine is observed

CC[C@H](C)[C@H](NC(=O)[C@@H](CO)NC(=O)[C@@H](CO)NC(=O)[C@@H](CC(C)C)NC(=O)[C@@H](CCCCN)NC(=O)[C@@H](CCCNC(=N)N)NC(=O)[C@@H](CCCNC(=N)N)NC(=O)[C@@H](CCCNC(=N)N)NC(=O)[C@@H](CCC(N)=O)NC(=O)[C@@H](CCCNC(=N)N)NC(=O)[C@@H](CCCNC(=N)N)NC(=O)[C@@H](CCCCN)NC(=O)[C@@H](CCCCN)NC(=O)[C@@H](CCCNC(=N)N)NC(=O)CNC(=O)[C@H](N)Cc1ccc(O)cc1)C(=O)N[C@@H](CCC(=O)O)C(=O)N[C@@H](CO)C(=O)N[C@@H](CC(=O)O)C(=O)N[C@H](C(=O)O)C(C)C [NA-3, ygrkkrrqrrrklssIESDV] (HELM PEPTIDE1{[dY].G.[dR].[dK].[dK].[dR].[dR].[dQ].[dR].[dR].[dR].[dK].[dL].[dS].[dS].I.E.S.D.V}$$$$V2.0; N-terminus and C-terminus assumed)
plasma concentration compared to nerinetide at the same dose ([10]; 15 min post subcutaneous dose): higher concentration at 15 min post-dose
relation between treatment dose and Cmax ([10]; single subcutaneous administration, 2.5, 7.6, 25 mg/kg): dose proportionality between the treatment dose and the Cmax
plasma concentrations achieved ([11]; subcutaneous 7.6 mg/Kg): able to achieve plasma concentrations higher than those demonstrated to be effective in humans
plasma concentrations achieved ([11]; subcutaneous 25 mg/kg): able to achieve plasma concentrations higher than those demonstrated to be effective in humans
Cmax and AUC versus nerinetide IV infusion ([11]; subcutaneous 25 mg/kg): greater Cmax and AUC than nerinetide IV infusion
drops in blood pressure compared to NA-1 [12]: No significant drops in blood pressure were observed
safety issues in physiologic parameters compared to intravenous nerinetide [12]: no significant safety issues were identified
IC50 [8]: < 5000 nM
IC50's relative to each other [8]: within a factor of two of each other
histamine release ([13]; 25 mg/kg SQ): resulted in histamine release but still much less than 7.6 mg/kg IV
histamine release ([13]; subcutaneous 2.8 mg/kg): did not result in significant histamine release
histamine release ([13]; subcutaneous 8.3 mg/kg): did not result in significant histamine release
therapeutic index ([9]; minimum effective dose versus highest no observed adverse effect level): low
creatinine and BUN values out of range ([9]; rats, subcutaneous 7.6 mg/kg or 2.6 mg/kg): No values out of range were observed
persistence of creatinine and BUN increases ([9]; rats, subcutaneous 25 mg/kg): persisted through day 7
creatinine and BUN (blood urea nitrogen) ([9]; rats, subcutaneous 25 mg/kg or 50 mg/kg, day 1 post dose): dose-dependent increases in creatinine and BUN
creatinine levels on reducing the dose 2-fold ([9]; rats, subcutaneous, versus 25 mg/kg NA-3, pre and after 1 day): significant reduction of the NA-3 creatinine levels
plasma concentration and plasma exposure relative to intrapulmonary NA-1 ([14]; pulmonary instillation): higher plasma concentration and a greater plasma exposure
CMax after pulmonary instillation ([14]; pulmonary instillation 25 mg/kg): higher CMax than for NA-1 or D-Tat-L-2B9C
AUC compared with subcutaneous NA-1 ([14]; subcutaneous 25 mg/kg): increased
Cmax compared with subcutaneous NA-1 ([14]; subcutaneous 25 mg/kg): increased
dose dependence of Cmax and AUC ([14]; subcutaneous 25, 8.3, 2.8 mg/kg): dose-dependent increasing linearly with dose

D-Tat-L-NA-1
EC50 [15]: 139 nM

yGrkkrrqrrrKLSSIESDV ([dY]G[dR][dK][dK][dR][dR][dQ][dR][dR][dR]KLSSIESDV)
not cleaved [16]: only negligible degradation when co-administered with tPA

Source: patent US20240301003A1 (NoNO Inc., priority 2021, published 2024)
